Test results published in US20090297438A1, “Human Monoclonal Antibodies to Prostate Specific Membrane Antigen (PSMA)” (priority 2005, published 2009).

Test system: LNCaP human prostate carcinoma xenografts
Test: LNCaP tumor xenografts treated with Taxotere and 7F12 antibody
Assay type: in vivo, male CB17.SCID mice
Conditions: Taxotere alone, 2 and 4 mg/kg iv
Experimental: The anti-tumor efficacy of the anti-PSMA 7F12 antibody in combination with Taxotere® (docetaxel) was tested on LNCaP human prostate carcinoma xenografts grown in male CB17.SCID mice.
LNCaP prostate cancer cells expressing high levels of PSMA were obtained from ATCC (Cat# CRL-1740) and expanded in vitro following ATCC instruction. 8 week-old male CB17.SCID mice from Taconic were implanted subcutaneously in the right flank with 2.5×10^6 LNCaP cells in 0.2 ml of PBS/Matrigel (1:1) per mouse. Mice were weighed and measured for tumor volume using an electronic caliper twice weekly starting three weeks post implantation. Tumor volumes were calculated as height×width×length. Mice with vascularized tumors (determined by the appearance of the tumors) of 180 mm^3 were randomized into treatment group and were dosed per individual body weight on Day 0. Mice were monitored for tumor growth around 60 days post dosing and terminated at the end of the study. Mice were euthanized when the tumors reached tumor end point (1500 mm^3). Taxotere® was dosed at Q3Dx3 intravenously (iv) through the tail vein. Isotype control antibody Rituxan® and the anti-PSMA 7F12 antibody were dosed intraperitoneally (ip) Q3Dx5, followed with Q7Dx6.

## CC(=O)O[C@@]12CO[C@@H]1C[C@H](O)[C@@]1(C)C(=O)[C@H](O)C3=C(C)[C@@H](OC(=O)[C@H](O)[C@@H](NC(=O)OC(C)(C)C)c4ccccc4)C[C@@](O)([C@@H](OC(=O)c4ccccc4)[C@H]21)C3(C)C [Taxotere®, docetaxel]
  anti-tumor growth efficacy: dose-dependent anti-tumor growth efficacy
